US20260216144A1, “TARGETING MB2 OF THE MYC ONCOGENE AND ITS INTERACTION WITH TRRAP IN CANCER” (priority 2019, published 2026)

Tests used:
MYC:TRRAP interaction = MYC:TRRAP interaction (Homo sapiens, UniProt P01106+Q9Y4A5); assay: MYC:TRRAP in-cell luminescence complementation assay (NanoBiT; SmB-MYC 1-190 and TRRAP 2033-2283-LgB in HeLa cells); type: cell-based
Outline: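 HeLa cells transfected with SmB-MYC 1-190, TRRAP 2033-2283-LgB and EGFP reporter (6.7:60:33.3 ng plasmid per well); two days later treated 2 h with compounds at 25 μM. NanoBiT luminescence normalized to EGFP fluorescence; hits retested at 10 μM and counter-screened on LgB/SmB alone.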

MYC:TRRAP complexes = target: T1, MYC:TRRAP complexes (Homo sapiens, UniProt P01106+Q9Y4A5); assay: in vitro co-IP (compounds added directly to the purified MYC:TRRAP complex on pre-washed beads); type: binding; conditions: in vitro by co-IP; normalized to protein levels; FIG. 26B; read-out: IC50 for the inhibition of MYC:TRRAP
T1 construct: immunoprecipitation experiments using endogenous full length MYC and TRRAP
Description: FIGS. 23A-23B show the results of co-IP assay experiments comparing the top 17 hits in immunoprecipitation experiments using endogenous full length MYC and TRRAP. In these experiments immunocomplexes were immunoprecipitated with anti-MYC beads in the presence of 25 μM of each of the 17 top compounds. Experiments were carried out in cells (compounds were added to the media of cells) (FIG. 23B) or in vitro (compounds were added directly to the purified complex on pre-washed beads) (FIG. 23A). Immunoprecipitation of TRRAP was normalized to the immunoprecipitation of MYC.
This represents an ^~10-fold increase in activity from NSC657456.

Sequence of MYC:TRRAP interaction (P01106 16-205): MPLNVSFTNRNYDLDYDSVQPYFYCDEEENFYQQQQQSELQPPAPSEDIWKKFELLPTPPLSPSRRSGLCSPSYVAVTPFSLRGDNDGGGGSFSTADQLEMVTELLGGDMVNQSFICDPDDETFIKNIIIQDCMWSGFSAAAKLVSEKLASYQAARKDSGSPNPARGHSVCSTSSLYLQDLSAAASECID
Sequence of MYC:TRRAP interaction (Q9Y4A5 2051-2301): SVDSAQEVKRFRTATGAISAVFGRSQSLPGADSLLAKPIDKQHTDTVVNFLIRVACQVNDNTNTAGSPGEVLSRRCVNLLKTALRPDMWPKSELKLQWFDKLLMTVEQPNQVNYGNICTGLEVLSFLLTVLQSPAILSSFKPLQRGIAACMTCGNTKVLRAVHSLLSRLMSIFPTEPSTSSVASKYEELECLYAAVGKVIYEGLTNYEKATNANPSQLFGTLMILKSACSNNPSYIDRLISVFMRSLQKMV
T1 sequence (P01106 16-454): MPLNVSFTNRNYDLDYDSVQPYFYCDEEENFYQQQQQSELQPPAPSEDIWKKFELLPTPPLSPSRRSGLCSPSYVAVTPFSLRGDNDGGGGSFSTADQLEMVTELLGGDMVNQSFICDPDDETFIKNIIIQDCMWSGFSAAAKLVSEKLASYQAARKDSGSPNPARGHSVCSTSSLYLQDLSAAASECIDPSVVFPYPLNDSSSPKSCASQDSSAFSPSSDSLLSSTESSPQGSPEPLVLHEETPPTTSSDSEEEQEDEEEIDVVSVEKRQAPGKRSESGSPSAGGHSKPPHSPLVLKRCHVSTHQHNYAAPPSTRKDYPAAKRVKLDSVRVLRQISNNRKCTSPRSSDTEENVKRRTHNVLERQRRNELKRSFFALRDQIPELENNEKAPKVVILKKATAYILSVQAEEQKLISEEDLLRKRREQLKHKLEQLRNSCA
T1 sequence (Q9Y4A5 1-3830 isoform Q9Y4A5-2): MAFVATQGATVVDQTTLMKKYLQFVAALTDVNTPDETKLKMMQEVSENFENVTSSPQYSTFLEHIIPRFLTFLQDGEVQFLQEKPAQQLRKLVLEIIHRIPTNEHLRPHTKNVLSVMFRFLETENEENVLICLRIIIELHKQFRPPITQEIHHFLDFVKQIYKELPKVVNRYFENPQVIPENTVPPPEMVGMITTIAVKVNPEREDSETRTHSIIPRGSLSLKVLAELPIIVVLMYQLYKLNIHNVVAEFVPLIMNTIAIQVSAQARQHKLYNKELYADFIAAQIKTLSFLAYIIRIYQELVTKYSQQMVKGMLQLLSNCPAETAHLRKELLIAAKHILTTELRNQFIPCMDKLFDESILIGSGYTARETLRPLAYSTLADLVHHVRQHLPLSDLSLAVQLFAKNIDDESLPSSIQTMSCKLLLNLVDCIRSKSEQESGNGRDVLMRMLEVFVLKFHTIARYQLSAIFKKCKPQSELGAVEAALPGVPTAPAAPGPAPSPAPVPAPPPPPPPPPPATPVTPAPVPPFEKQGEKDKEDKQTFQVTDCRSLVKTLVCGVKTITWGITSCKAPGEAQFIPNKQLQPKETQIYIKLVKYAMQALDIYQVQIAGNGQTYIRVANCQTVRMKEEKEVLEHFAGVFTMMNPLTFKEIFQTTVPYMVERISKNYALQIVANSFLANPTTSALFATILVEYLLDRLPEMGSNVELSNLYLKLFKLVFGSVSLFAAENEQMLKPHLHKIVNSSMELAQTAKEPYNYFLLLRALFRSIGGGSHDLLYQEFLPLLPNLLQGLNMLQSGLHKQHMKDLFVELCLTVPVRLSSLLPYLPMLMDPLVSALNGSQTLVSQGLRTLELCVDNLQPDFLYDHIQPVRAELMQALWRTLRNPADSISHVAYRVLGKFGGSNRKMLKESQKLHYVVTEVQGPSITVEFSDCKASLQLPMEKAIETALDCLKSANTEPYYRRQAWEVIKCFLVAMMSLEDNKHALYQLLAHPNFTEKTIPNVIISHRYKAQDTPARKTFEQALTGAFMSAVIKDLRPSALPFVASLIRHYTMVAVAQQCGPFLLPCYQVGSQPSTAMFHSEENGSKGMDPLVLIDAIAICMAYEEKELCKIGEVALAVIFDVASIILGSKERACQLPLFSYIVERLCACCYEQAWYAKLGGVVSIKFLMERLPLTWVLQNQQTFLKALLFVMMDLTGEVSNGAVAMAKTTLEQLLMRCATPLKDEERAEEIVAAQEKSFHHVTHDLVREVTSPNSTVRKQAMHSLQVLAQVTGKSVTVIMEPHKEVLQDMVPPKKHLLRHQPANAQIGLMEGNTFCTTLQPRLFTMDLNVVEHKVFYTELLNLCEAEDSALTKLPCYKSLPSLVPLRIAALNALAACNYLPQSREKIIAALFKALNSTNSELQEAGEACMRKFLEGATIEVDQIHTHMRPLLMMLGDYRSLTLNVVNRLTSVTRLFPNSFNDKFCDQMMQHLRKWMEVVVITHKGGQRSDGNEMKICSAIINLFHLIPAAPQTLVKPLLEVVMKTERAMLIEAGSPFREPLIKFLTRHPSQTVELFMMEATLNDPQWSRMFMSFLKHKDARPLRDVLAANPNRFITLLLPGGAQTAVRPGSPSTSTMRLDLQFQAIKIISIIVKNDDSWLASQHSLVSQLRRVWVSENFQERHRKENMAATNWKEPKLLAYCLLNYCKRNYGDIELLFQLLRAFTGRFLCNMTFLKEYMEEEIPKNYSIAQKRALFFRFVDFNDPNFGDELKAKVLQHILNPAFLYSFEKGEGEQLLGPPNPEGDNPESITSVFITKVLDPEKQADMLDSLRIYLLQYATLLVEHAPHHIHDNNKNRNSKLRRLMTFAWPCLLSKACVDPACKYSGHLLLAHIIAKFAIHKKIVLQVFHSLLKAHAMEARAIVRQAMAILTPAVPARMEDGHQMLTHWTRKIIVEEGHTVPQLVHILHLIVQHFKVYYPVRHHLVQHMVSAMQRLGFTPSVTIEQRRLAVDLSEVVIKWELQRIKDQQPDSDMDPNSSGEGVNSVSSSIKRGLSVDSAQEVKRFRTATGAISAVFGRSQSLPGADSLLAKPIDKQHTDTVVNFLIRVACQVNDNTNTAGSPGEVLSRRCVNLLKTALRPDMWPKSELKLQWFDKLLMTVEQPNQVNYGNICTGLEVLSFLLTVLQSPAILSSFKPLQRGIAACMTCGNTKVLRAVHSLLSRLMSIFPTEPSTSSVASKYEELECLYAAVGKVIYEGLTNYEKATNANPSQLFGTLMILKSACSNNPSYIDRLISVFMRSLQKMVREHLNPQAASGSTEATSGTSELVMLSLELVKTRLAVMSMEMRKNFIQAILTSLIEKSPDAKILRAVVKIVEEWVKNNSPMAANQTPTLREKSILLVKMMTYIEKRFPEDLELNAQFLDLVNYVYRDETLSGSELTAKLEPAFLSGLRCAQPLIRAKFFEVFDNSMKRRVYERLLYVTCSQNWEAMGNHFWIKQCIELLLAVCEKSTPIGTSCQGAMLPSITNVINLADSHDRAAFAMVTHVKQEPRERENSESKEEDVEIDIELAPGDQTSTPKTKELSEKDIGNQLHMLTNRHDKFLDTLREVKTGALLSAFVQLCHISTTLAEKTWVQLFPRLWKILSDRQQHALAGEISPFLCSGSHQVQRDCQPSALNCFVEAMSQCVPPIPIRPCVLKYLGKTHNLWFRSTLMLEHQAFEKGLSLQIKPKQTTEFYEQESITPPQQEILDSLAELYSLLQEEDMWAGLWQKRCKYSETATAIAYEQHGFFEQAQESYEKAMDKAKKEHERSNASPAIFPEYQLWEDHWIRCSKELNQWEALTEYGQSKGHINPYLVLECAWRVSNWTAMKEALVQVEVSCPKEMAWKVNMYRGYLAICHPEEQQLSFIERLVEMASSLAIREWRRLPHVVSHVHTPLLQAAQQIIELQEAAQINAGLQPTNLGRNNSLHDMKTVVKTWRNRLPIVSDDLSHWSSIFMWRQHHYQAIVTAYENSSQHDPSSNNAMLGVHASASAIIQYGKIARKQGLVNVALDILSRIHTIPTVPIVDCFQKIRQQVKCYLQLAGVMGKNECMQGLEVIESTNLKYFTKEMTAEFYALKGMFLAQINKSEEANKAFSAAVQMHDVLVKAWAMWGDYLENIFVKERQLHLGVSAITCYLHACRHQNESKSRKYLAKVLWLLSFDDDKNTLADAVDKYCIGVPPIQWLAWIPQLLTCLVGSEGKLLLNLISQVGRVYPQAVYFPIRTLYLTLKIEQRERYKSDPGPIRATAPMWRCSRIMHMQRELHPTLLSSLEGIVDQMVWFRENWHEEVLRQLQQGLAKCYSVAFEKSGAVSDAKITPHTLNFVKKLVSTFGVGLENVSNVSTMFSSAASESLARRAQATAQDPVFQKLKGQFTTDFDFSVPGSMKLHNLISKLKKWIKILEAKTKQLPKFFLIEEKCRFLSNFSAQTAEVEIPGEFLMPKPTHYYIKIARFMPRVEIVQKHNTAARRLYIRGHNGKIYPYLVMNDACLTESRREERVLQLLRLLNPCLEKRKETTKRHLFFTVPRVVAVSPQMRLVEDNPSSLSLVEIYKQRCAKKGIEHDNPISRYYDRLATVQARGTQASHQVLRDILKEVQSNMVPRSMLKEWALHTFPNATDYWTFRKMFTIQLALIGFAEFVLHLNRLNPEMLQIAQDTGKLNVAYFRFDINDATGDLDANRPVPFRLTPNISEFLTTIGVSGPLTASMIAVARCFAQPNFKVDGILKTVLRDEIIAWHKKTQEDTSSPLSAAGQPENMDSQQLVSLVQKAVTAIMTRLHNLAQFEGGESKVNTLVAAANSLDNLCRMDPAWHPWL

concentration that inhibits MYC:TRRAP complex formation (MYC:TRRAP interaction; FIG. 25, 26): 3 to 5 µM | % Inhibition 10 uM (MYC:TRRAP interaction; Table 2, compounds with >80% similarity to compound 10 (NSC657456), 10 uM): 39.63% | increase in activity from NSC657456 (MYC:TRRAP interaction; compared with NSC657456): ~ 10 fold | IC50 (MYC:TRRAP interaction; in cells, in-cell luminescence complementation assay, normalized to MYC and TRRAP protein levels, FIG. 26A, read-out: IC50 for the inhibition of MYC:TRRAP): 4.7 µM | IC50 (MYC:TRRAP complexes): 3.7 µM
Structure (SMILES): Oc1[nH]c2ccccc2c1/N=N/c1nc(-c2ccccc2)cs1 [Compound 1024, 3-[(4-phenyl-1,3-thiazol-2-yl)diazenyl]-1H-indol-2-ol]
